From paper doi:10.1101/2025.05.09.652710v1 (bioRxiv, 2025)

Legend:
[1] = biological target: thrombin (Homo sapiens, UniProt P00734); assay: Chromogenic kinetic enzyme assay, thrombin; type: biochemical
[2] = biological target: TMPRSS2 (Homo sapiens, UniProt O15393, Q253D/R252D/R255K/S251D/S254D); assay: Fluorogenic kinetic enzyme inhibitor assay, TMPRSS2; type: biochemical
[3] = biological target: T1, HGFA (Homo sapiens, UniProt Q04756); assay: Fluorogenic kinetic enzyme inhibitor assay, HGFA; type: biochemical
T1 sequence (Q04756 373-655): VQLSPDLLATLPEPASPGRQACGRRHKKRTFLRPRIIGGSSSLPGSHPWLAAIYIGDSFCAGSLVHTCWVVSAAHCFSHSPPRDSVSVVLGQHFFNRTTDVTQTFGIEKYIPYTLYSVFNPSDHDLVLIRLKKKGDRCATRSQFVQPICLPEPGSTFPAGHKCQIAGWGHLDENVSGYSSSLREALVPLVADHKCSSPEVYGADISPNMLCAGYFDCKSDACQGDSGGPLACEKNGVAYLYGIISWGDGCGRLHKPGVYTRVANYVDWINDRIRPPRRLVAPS

[4] = tested on: influenza A virus strain A/California/4/2009 (pdmH1N1); conditions: for H1N1 titer Log fold reduction (1 μM): virus strain A/California/4/2009 (pdmH1N1, 72 h, 1 μM); for H1N1 titer Log fold reduction (10 μM): virus strain A/California/4/2009 (pdmH1N1, 72 h, 10 μM)
[5] = tested on: chimeric VSV SARS-CoV-2 virus; conditions: for EC50: chimeric VSV virus
[6] = biological target: T2, matriptase (Homo sapiens, UniProt Q9Y5Y6); assay: Fluorogenic kinetic enzyme inhibitor assay, matriptase; type: biochemical
T2 sequence (Q9Y5Y6 615-855): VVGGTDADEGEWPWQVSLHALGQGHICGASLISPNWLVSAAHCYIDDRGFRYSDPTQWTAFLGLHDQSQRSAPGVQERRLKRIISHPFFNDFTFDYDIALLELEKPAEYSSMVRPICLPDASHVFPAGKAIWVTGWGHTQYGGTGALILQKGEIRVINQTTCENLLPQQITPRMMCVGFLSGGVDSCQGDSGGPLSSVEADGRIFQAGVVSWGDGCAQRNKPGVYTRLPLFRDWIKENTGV

[7] = biological target: hepsin (Homo sapiens, UniProt P05981); assay: Fluorogenic kinetic enzyme inhibitor assay, hepsin; type: biochemical
Sequence of hepsin (P05981 163-417 limits assumed): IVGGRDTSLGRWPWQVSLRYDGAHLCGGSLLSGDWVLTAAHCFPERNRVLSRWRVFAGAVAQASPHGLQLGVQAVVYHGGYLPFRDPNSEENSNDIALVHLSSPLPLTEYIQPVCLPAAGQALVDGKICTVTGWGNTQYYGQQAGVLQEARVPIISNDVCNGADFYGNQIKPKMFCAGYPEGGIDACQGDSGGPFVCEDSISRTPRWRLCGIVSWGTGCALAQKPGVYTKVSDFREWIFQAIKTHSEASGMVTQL
Sequence of hepsin (P05981 45-162 partner limits assumed): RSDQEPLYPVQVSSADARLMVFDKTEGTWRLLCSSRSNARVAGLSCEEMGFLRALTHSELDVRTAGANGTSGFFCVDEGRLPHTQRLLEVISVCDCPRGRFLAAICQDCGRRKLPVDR

Sequence of TMPRSS2 (O15393 109-492 S251D/R252D/Q253D/S254D/R255K limits assumed): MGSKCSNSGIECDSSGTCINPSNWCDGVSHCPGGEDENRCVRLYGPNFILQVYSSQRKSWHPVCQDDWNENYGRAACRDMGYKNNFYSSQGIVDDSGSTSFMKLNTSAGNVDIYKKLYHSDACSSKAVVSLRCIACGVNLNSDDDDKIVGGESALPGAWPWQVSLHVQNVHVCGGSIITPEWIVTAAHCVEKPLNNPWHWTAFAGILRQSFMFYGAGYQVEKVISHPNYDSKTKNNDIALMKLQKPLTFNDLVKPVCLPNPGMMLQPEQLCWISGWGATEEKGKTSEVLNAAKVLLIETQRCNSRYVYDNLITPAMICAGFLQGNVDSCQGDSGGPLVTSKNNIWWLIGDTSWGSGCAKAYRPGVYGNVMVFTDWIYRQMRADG

Row | Compound | IC50 [1] [nM] | IC50 [2] [nM] | IC50 [3] [nM] | H1N1 Fold inhibition @ 0.001 μM [4] | H1N1 Fold inhibition @ 0.01 μM [4] | H1N1 Fold inhibition @ 0.1 μM [4] | H1N1 Fold inhibition @ 1 μM [4] | H1N1 Fold inhibition @ 10 μM [4] | H1N1 titer Log fold reduction (1 μM) [4] | H1N1 titer Log fold reduction (10 μM) [4] | VSV SARS-CoV-2 Chimera EC50 [5] | EC50 [5] [nM] | IC50 [6] [nM] | IC50 [7] [nM]
1 | N=C(N)NCCC[C@H](NC(=O)[C@H](Cc1ccccc1)NC(=O)[C@H](CCC(N)=O)NS(=O)(=O)Cc1ccccc1)C(=O)c1nc2ccccc2s1 [MF1105, BnSO2-QFR-kbt] | > 20000 | 0.07 | 6.5 | – | – | – | – | – | – | – | – | – | – | –
2 | CC(=O)NCC(=O)N[C@@H](CCC(N)=O)C(=O)N[C@@H](Cc1ccccc1)C(=O)N[C@@H](CCCNC(=N)N)C(=O)c1nc2ccccc2s1 [MM3122, Ac-GQFR-kbt] | – | 0.03 | – | 2.1 | 4.2 | 27.5 | 2216 | 2952 | 3.4 | 4.3 | below nM | 0.43 | – | –
3 | CC(=O)N1CCC[C@H]1C(=O)N[C@@H](CCC(N)=O)C(=O)N[C@@H](Cc1ccccc1)C(=O)N[C@@H](CCCNC(=N)N)C(=O)c1nc2ccccc2s1 [MM3123, Ac-PQFR-kbt] | – | 0.06 | – | – | – | – | – | – | 1.3 | 2.6 | below nM | 0.86 | – | –
4 | CSCC[C@H](NC(C)=O)C(=O)N[C@@H](CCC(N)=O)C(=O)N[C@@H](Cc1ccccc1)C(=O)N[C@@H](CCCNC(=N)N)C(=O)c1nc2ccccc2s1 [MM3130, Ac-MQFR-kbt] | – | 0.14 | – | – | – | 1 | 27 | 510 | 1.4 | 2.7 | – | 48 | – | –
5 | CC(=O)N1CCC[C@H]1C(=O)N[C@@H](CO)C(=O)N[C@@H](CCCCN)C(=O)N[C@@H](CCCNC(=N)N)C(=O)c1nc2ccccc2s1 [MM3194, Ac-PSKR-kbt] | > 20000 | 0.29 | – | – | – | 1 | 1 | 4 | 0 | 0.60 | – | 613 | – | –
6 | CC[C@H](C)[C@H](NC(C)=O)C(=O)N[C@@H](CCSC)C(=O)N[C@@H](Cc1ccccc1)C(=O)N[C@@H](CCCNC(=N)N)C(=O)c1nc2ccccc2s1 [MM4027, Ac-IMFR-kbt] | > 20000 | 3 | – | – | – | – | – | – | – | – | – | 92 | 0.51 | 1.3
7 | CC[C@H](C)[C@H](NC(C)=O)C(=O)N[C@@H](CCSC)C(=O)N[C@@H](Cc1ccccc1)C(=O)N[C@H](CCCNC(=N)N)C(=O)c1nc2ccccc2s1 [MM4027-1, Ac-IMFdR-kbt] | > 20000 | 5.63 | 234 | – | – | – | – | – | – | – | – | – | 16.1 | 3.16
8 | CC[C@H](C)[C@H](NC(C)=O)C(=O)N[C@H](C(=O)N[C@@H](Cc1ccccc1)C(=O)N[C@@H](CCCNC(=N)N)C(=O)c1nc2ccccc2s1)[C@@H](C)O [MM4028, Ac-ITFR-kbt] | > 20000 | 0.06 | 182 | – | – | – | – | – | – | – | – | 103 | 4.7 | 0.86
9 | CC[C@H](C)[C@H](NC(C)=O)C(=O)N[C@H](C(=O)N[C@@H](Cc1ccccc1)C(=O)N[C@H](CCCNC(=N)N)C(=O)c1nc2ccccc2s1)[C@@H](C)O [MM4028-1, Ac-ITFdR-kbt] | > 20000 | 1.42 | 1120 | – | – | – | – | – | – | – | – | – | – | –
10 | CC[C@H](C)[C@H](NC(C)=O)C(=O)N[C@@H](CCC(=O)O)C(=O)N[C@@H](Cc1ccccc1)C(=O)N[C@@H](CCCNC(=N)N)C(=O)c1nc2ccccc2s1 [MM4037, Ac-IEFR-kbt] | > 20000 | 0.11 | 276 | – | – | – | – | – | – | – | – | 24 | 2.4 | 0.35
11 | CC[C@H](C)[C@H](NC(C)=O)C(=O)N[C@@H](CCC(=O)O)C(=O)N[C@@H](Cc1ccccc1)C(=O)N[C@H](CCCNC(=N)N)C(=O)c1nc2ccccc2s1 [MM4037-1, Ac-IEFdR-kbt] | > 20000 | 0.38 | > 20000 | – | – | – | – | – | – | – | – | – | – | –
